Experimental data as given in patent publication US7829754B2, “Method of cleaning heavy metals-containing soil” (Chubu Electric Power Co., Inc., priority 2004, dated 2010).
Where two headings read alike, the source gives them in different places.

How the values were obtained:
[1] = system: Fagopyrum esculentum; details: for Leaf dry weight / Stem dry weight / Stem lead concentration / Terrestrial dry weight / Terrestrial part lead accumulation amount / Terrestrial part lead concentration: soil B; for Leaf lead concentration: soil B (lead 13032 mg/kg), added one week before harvesting
Method: A lead concentration in a soil or a plant body was analyzed using ICP-AES (inductively coupled plasma-atomic emission spectrometry) regarding a sample obtained by adding nitric acid and degrading this with a microwave.
A cultivating experiment was conducted as follows: in which Fagopyrum esculentum and Brassica juncca were cultivated in a lead-containing soil filled in a Wagnel pot, a chelating agent was further added to the soil, and a difference in a lead accumulating amount depending on the cultivating condition was examined.
In addition, considering influence on plants and environment such as a salt concentration damage, 1, 5, 10 and 20 mmol kg^−1 soil of chemical reagents were adopted as an addition concentration, and 300 ml/pot (soil 3 kg) was provided as an addition amount.
1) Test plant: Fagopyrum esculentum, trade name (Milkyway), Brassica juncea
2) Test soil: Soil B (sampled from an old firing range site, soil lead concentration 13032 mg/kg), contrast sample (mountain sand in Gifu Prefecture of Japan, soil lead concentration 21 mg/kg)

[2] = system: Fagopyrum esculentum; assay: Fagopyrum esculentum growth situation after addition of chelating agent
Method: 3) The soil B (3 kg) and the contrast section soil (4.3 kg) which had been passed through a sieve (2 mm) were mixed with urea (N: 69 mg/kg soil), calcium superphosphate (P: 75 mg/kg soil), potassium chloride (K: 72 mg/kg soil), and magnesia lime (Mg: 67 mg/kg soil), and sufficiently stirred. 4) The test soil was filled into a Wagnel pot (1/5000a), and a plant was seeded (3 pits/pot, 3 grains/pit). 5) Four to five days after germination, the plant was thinned out to 3 individuals/pot. 6) Cultivation in a gross chamber (Environmental Condition) Temperature: 25° C.×12 h (8:00-20:00), 20° C.×12 h (20:00-8:00) Humidity: 60% Illumination: light condition (8:00-20:00), dark condition (20:00-8:00) Illuminance: 98001×, 180μ mmol˜m^−2·s^−1 7) Aspersion was performed at 100 ml/pot every day. 8) During a test term, a position of a pot was changed four times. 9) Individuals which were about to fall were induced by a support post. 10) One week before harvesting, a chelating agent at each concentration was added to the soil B. An addition amount was 300 ml/pot, and the chelating agent was carefully added to a surface of the soil so that the chelating agent was not contacted with the plant. On the day before addition of the chelating agent and on the day of addition, aspersion was not performed. […] 12) Repeated cycles in all sections were 3 (3 pots/test section).

[3] = format: physicochemical
Method: <Experiment 1. Test of Comparing Lead Dissolving Out Ability of Chelating Agent>
In order to study a kind of a chelating agent to be added to a contaminated soil, the lead dissolving out abilities of 26 types of chelating agents (chelate reagents) were compared (FIG. 2).
2) Chelating agent: Each chelating agent of 100 mmol·dm^−3 and pH 5.8 was prepared.
3) Five grams of 1) the subject soil and 50 ml of 2) the chelating agent were put into to a 100 ml vessel, and shaken (200 times/min) at 20° C. for 6 hours. Repeated cycle was 3.
4) For comparison, a contrast section was prepared, in which desalted water was added instead of the chelating agent in the 3).
5) After shaking, the sample after filtration was centrifuged at 15000 rpm for 5 minutes, and the supernatant liquid was further centrifuged again under the same condition.
6) From the separated supernatant liquid, a lead concentration was measured with an inductively coupled high frequency plasma spectrometry (ICP) device.

[4] = chelating agent 10 mmol/kg soil
[5] = chelating agent 20 mmol/kg soil
[6] = per unit area, calculated, chelating agent 1 mmol/kg soil
[7] = per unit area, calculated, chelating agent 5 mmol/kg soil
[8] = per unit area, calculated, chelating agent 10 mmol/kg soil
[9] = per unit area, calculated, chelating agent 20 mmol/kg soil
[10] = four days after addition, 1 mmol/kg soil
[11] = four days after addition, 5 mmol/kg soil
[12] = four days after addition, 10 mmol/kg soil
[13] = four days after addition, 20 mmol/kg soil
[14] = chelating agent 100 mmol·dm^−3, pH 5.8, Soil A, shaken at 20° C. for 6 hours, FIG. 2

O=C([O-])CC(O)(CC(=O)[O-])C(=O)[O-].[Na+].[Na+].[Na+] [Sodium citrate, sodium citrate]
Leaf dry weight ([1]; chelating agent 1 mmol/kg soil): 0.9090 g/plant | Stem dry weight ([1]; chelating agent 1 mmol/kg soil): 1.9892 g/plant | Stem lead concentration ([1]; chelating agent 1 mmol/kg soil): 1815 mg/kg | Terrestrial dry weight ([1]; chelating agent 1 mmol/kg soil): 2.8982 g/plant | Terrestrial part lead accumulation amount ([1]; chelating agent 1 mmol/kg soil): 0.0121 g/plant | Terrestrial part lead concentration ([1]; chelating agent 1 mmol/kg soil): 4169 mg/kg | Leaf lead concentration ([1]; chelating agent 1 mmol/kg soil): 9320 mg/kg | Leaf dry weight ([1]; chelating agent 5 mmol/kg soil): 1.0308 g/plant | Stem dry weight ([1]; chelating agent 5 mmol/kg soil): 1.6837 g/plant | Stem lead concentration ([1]; chelating agent 5 mmol/kg soil): 1671 mg/kg | Terrestrial dry weight ([1]; chelating agent 5 mmol/kg soil): 2.7145 g/plant | Terrestrial part lead accumulation amount ([1]; chelating agent 5 mmol/kg soil): 0.0101 g/plant | Terrestrial part lead concentration ([1]; chelating agent 5 mmol/kg soil): 3732 mg/kg | Leaf lead concentration ([1]; chelating agent 5 mmol/kg soil): 7099 mg/kg | Leaf dry weight [1, 4]: 0.7356 g/plant | Stem dry weight [1, 4]: 1.7669 g/plant | Stem lead concentration [1, 4]: 1524 mg/kg | Terrestrial dry weight [1, 4]: 2.5025 g/plant | Terrestrial part lead accumulation amount [1, 4]: 0.0080 g/plant | Terrestrial part lead concentration [1, 4]: 3191 mg/kg | Leaf lead concentration [1, 4]: 7195 mg/kg | Leaf dry weight [1, 5]: 0.8797 g/plant | Stem dry weight [1, 5]: 1.9099 g/plant | Stem lead concentration [1, 5]: 2286 mg/kg | Terrestrial dry weight [1, 5]: 2.7896 g/plant | Terrestrial part lead accumulation amount [1, 5]: 0.0134 g/plant | Terrestrial part lead concentration [1, 5]: 4806 mg/kg | Leaf lead concentration [1, 5]: 10270 mg/kg | Terrestrial part lead accumulation amount [1, 6]: 1.82 g/m^2 | Terrestrial part lead accumulation amount [1, 7]: 1.52 g/m^2 | Terrestrial part lead accumulation amount [1, 8]: 1.20 g/m^2 | Terrestrial part lead accumulation amount [1, 9]: 2.01 g/m^2 | Discoloration of leaf (number of individuals for which symptom was observed) [2, 10]: 5 | Discoloration of leaf (number of individuals for which symptom was observed) [2, 11]: 2 | Discoloration of leaf (number of individuals for which symptom was observed) [2, 12]: 4 | Leaf drop (number of individuals for which symptom was observed) [2, 12]: 2 | Wilting of leaf (number of individuals for which symptom was observed) [2, 12]: 4 | Discoloration of leaf (number of individuals for which symptom was observed) [2, 13]: 5 | Wilting of leaf (number of individuals for which symptom was observed) [2, 13]: 6 | lead dissolving out ability [3, 14]: not so much higher than the aforementioned biodegradable chelating agents | lead dissolving out ability ([3]; pH 5.8): high lead dissolving out ability

O=C(O)CC(O)(CC(=O)O)C(=O)O [citric acid]
lead dissolving out ability ([3]; pH 5.8): high lead dissolving out ability

disodium ethylenediamine tetraacetate [EDTA · 2Na, reference compound]
addition effect on lead concentration in stems ([1]; 10, 20 mmol/kg soil, contrast section 2043 mg/kg): high addition effect | addition effect on lead concentration in leaves ([1]; 10, 20 mmol/kg soil, contrast section 7971 mg/kg): high addition effect | Leaf dry weight ([1]; chelating agent 1 mmol/kg soil): 0.9799 g/plant | Stem dry weight ([1]; chelating agent 1 mmol/kg soil): 1.7240 g/plant | Stem lead concentration ([1]; chelating agent 1 mmol/kg soil): 1791 mg/kg | Terrestrial dry weight ([1]; chelating agent 1 mmol/kg soil): 2.7039 g/plant | Terrestrial part lead accumulation amount ([1]; chelating agent 1 mmol/kg soil): 0.0106 g/plant | Terrestrial part lead concentration ([1]; chelating agent 1 mmol/kg soil): 3926 mg/kg | Leaf lead concentration ([1]; chelating agent 1 mmol/kg soil): 7683 mg/kg | Leaf dry weight ([1]; chelating agent 5 mmol/kg soil): 1.0307 g/plant | Stem dry weight ([1]; chelating agent 5 mmol/kg soil): 2.0750 g/plant | Stem lead concentration ([1]; chelating agent 5 mmol/kg soil): 2288 mg/kg | Terrestrial dry weight ([1]; chelating agent 5 mmol/kg soil): 3.1057 g/plant | Terrestrial part lead accumulation amount ([1]; chelating agent 5 mmol/kg soil): 0.0157 g/plant | Terrestrial part lead concentration ([1]; chelating agent 5 mmol/kg soil): 5045 mg/kg | Leaf lead concentration ([1]; chelating agent 5 mmol/kg soil): 10595 mg/kg | Leaf dry weight [1, 4]: 0.9617 g/plant | Stem dry weight [1, 4]: 1.8899 g/plant | Stem lead concentration [1, 4]: 3376 mg/kg | Terrestrial dry weight [1, 4]: 2.8516 g/plant | Terrestrial part lead accumulation amount [1, 4]: 0.0244 g/plant | Terrestrial part lead concentration [1, 4]: 8564 mg/kg | Leaf lead concentration [1, 4]: 18758 mg/kg | Leaf dry weight [1, 5]: 0.6389 g/plant | Stem dry weight [1, 5]: 1.4969 g/plant | Stem lead concentration [1, 5]: 8947 mg/kg | Terrestrial dry weight [1, 5]: 2.1358 g/plant | Terrestrial part lead accumulation amount [1, 5]: 0.0328 g/plant | Terrestrial part lead concentration [1, 5]: 15335 mg/kg | Leaf lead concentration [1, 5]: 30303 mg/kg | Terrestrial part lead accumulation amount [1, 6]: 1.59 g/m^2 | Terrestrial part lead accumulation amount [1, 7]: 2.36 g/m^2 | Terrestrial part lead accumulation amount [1, 8]: 3.66 g/m^2 | Terrestrial part lead accumulation amount [1, 9]: 4.92 g/m^2 | Discoloration of leaf (number of individuals for which symptom was observed) [2, 10]: 3 | Discoloration of leaf (number of individuals for which symptom was observed) [2, 11]: 4 | Leaf drop (number of individuals for which symptom was observed) [2, 11]: 1 | Wilting of leaf (number of individuals for which symptom was observed) [2, 11]: 1 | Discoloration of leaf (number of individuals for which symptom was observed) [2, 12]: 6 | Wilting of leaf (number of individuals for which symptom was observed) [2, 12]: 2 | Discoloration of flower (number of individuals for which symptom was observed) [2, 13]: 9 | Discoloration of leaf (number of individuals for which symptom was observed) [2, 13]: 9 | Leaf drop (number of individuals for which symptom was observed) [2, 13]: 2 | Wilting of leaf (number of individuals for which symptom was observed) [2, 13]: 9 | yellow leaves, spotting and discoloration of leaves, and discoloration of a flower [2, 13]: confirmed in all individuals | discoloration of leaves ([2]; two days after addition, 20 mmol/kg soil): discoloration of leaves was observed | lead dissolving out ability [3, 14]: high lead dissolving out ability

tetrasodium L-glutamic acid diacetate [GLDA·4Na]
lead dissolving out ability [3, 14]: high lead dissolving out ability
